O=C(O)CCCCCC(=O)O
Conditions | solubility (mole fraction)
in THF, 298.95 K | 0.191
in THF, 300.55 K | 0.198
in THF, 302.15 K | 0.204
in THF, 303.65 K | 0.211
in THF, 305.15 K | 0.218
in THF, 307.95 K | 0.231
in THF, 309.05 K | 0.235
in THF, 311.75 K | 0.25
in THF, 313.75 K | 0.259
in THF, 315.75 K | 0.271
in THF, 317.75 K | 0.282
in THF, 320.25 K | 0.296
in THF, 321.65 K | 0.306
in THF, 323.05 K | 0.316
in diethyl ether, 278.95 K | 0.0091
in diethyl ether, 281.95 K | 0.0102
in diethyl ether, 284.65 K | 0.0112
in diethyl ether, 287.05 K | 0.0122
in diethyl ether, 290.05 K | 0.0137
in diethyl ether, 292.95 K | 0.0152
in diethyl ether, 294.75 K | 0.0165
in diethyl ether, 296.35 K | 0.018
in diethyl ether, 299.15 K | 0.0199
in diethyl ether, 301.55 K | 0.0222
in ethanol, 298.45 K | 0.121
in ethanol, 301.45 K | 0.131
in ethanol, 304.25 K | 0.144
in ethanol, 305.75 K | 0.151
in ethanol, 307.55 K | 0.158
in ethanol, 310.25 K | 0.172
in ethanol, 312.15 K | 0.187
in ethanol, 314.85 K | 0.202
in ethanol, 316.25 K | 0.206
in ethanol, 317.95 K | 0.219
in ethanol, 320.95 K | 0.235
in ethanol, 323.55 K | 0.248
in ethanol, 325.65 K | 0.267
in ethanol, 327.55 K | 0.281
in ethanol, 329.25 K | 0.294
in methanol, 300.75 K | 0.142
in methanol, 302.65 K | 0.152
in methanol, 304.15 K | 0.159
in methanol, 305.95 K | 0.171
in methanol, 307.65 K | 0.18
in methanol, 310.05 K | 0.187
in methanol, 312.65 K | 0.205
in methanol, 314.85 K | 0.218
in methanol, 317.85 K | 0.246
in methanol, 321.35 K | 0.27
in methanol, 323.75 K | 0.293
in methanol, 325.55 K | 0.309
in methanol, 327.15 K | 0.324
in methanol, 328.75 K | 0.342

— BigSolDB 2.1
